Assays:
[1] = test system: S. epidermidis (ATCC 12228); assay: Zone of inhibition screen, 96 well agar array format; assay type: cell-based; parameters: scale not given here
Procedure, shortened: (§1)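 Compounds are screened one by one for antibacterial effect in an agar array of 96 wells, using the same set of strains throughout.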

E. faecalis (CL 4877) = assay: as above; assay type: cell-based; parameters: scale not given here
Procedure, shortened: as §1

[2] = zone of inhibition relative to 1 mg/ml stock solution of p-chlorobiphenylvancomycin
[3] = zone of inhibition relative to 1 mg/ml p-chlorobiphenylvancomycin

Row | Compound | zone score, S. epidermidis ATCC 12228 [1, 2] | zone score, E. faecalis CL 4877 (E. faecalis (CL 4877); [2]) | zone score, S. epidermidis ATCC 12228 [1, 3] | zone score, E. faecalis CL 4877 (E. faecalis (CL 4877); [3])
1 | CC1OC(OC2C(Oc3c4cc5cc3Oc3ccc(cc3Cl)C(O)C3NC(=O)C(NC(=O)C5NC(=O)C(CC(N)=O)NC(=O)C(NC(=O)C[N+](C)(C)C)C(O)c5ccc(c(Cl)c5)O4)c4ccc(O)c(c4)-c4c(O)cc(O)cc4C(C(=O)O)NC3=O)OC(CO)C(O)C2O)CC(C)(NCc2ccc(-c3ccc(Cl)cc3)cc2)C1O (stereo not drawn) [Compound 129] | 2 | 2 |  | 
2 | CC1OC(OC2C(Oc3c4cc5cc3Oc3ccc(cc3Cl)C(O)C3NC(=O)C(NC(=O)C5NC(=O)C(CC(N)=O)NC(=O)C(NC(=O)CC(NC(=O)OC(C)(C)C)C(N)=O)C(O)c5ccc(c(Cl)c5)O4)c4ccc(O)c(c4)-c4c(O)cc(O)cc4C(C(=O)O)NC3=O)OC(CO)C(O)C2O)CC(C)(NCc2ccc(-c3ccc(Cl)cc3)cc2)C1O (stereo not drawn) [Compound 134] | 2 | 2 |  | 
3 | CC1OC(OC2C(Oc3c4cc5cc3Oc3ccc(cc3Cl)[C@@H](O)[C@@H](NC(=O)/C=C\C(N)=O)C(=O)N[C@@H](CC(N)=O)C(=O)N[C@H]5C(=O)NC3C(=O)N[C@H](C(=O)N[C@@H](C(=O)O)c5cc(O)cc(O)c5-c5cc3ccc5O)[C@H](O)c3ccc(c(Cl)c3)O4)OC(CO)C(O)C2O)CC(C)(NCc2ccc(-c3ccc(Cl)cc3)cc2)C1O (stereo partly drawn) [Compound 170] | 2 | 2 |  | 
4 | CSCCC(NC(C)=O)C(=O)NC1C(=O)NC(CC(N)=O)C(=O)NC2C(=O)NC3C(=O)NC(C(=O)NC(C(=O)O)c4cc(O)cc(O)c4-c4cc3ccc4O)C(O)c3ccc(c(Cl)c3)Oc3cc2cc(c3OC2OC(CO)C(O)C(O)C2OC2CC(C)(NCc3ccc(-c4ccc(Cl)cc4)cc3)C(O)C(C)O2)Oc2ccc(cc2Cl)C1O (stereo not drawn) [Compound 182] | 2 | 2 |  | 
5 | CC1OC(OC2C(Oc3c4cc5cc3Oc3ccc(cc3Cl)C(O)C3NC(=O)C(NC(=O)C5NC(=O)C(CC(N)=O)NC(=O)C(NC(=O)CNC=O)C(O)c5ccc(c(Cl)c5)O4)c4ccc(O)c(c4)-c4c(O)cc(O)cc4C(C(=O)O)NC3=O)OC(CO)C(O)C2O)CC(C)(NCc2ccc(-c3ccc(Cl)cc3)cc2)C1O (stereo not drawn) [Compound 193] | 2 | 2 |  | 
6 | CC1OC(OC2C(Oc3c4cc5cc3Oc3ccc(cc3Cl)C(O)C3NC(=O)C(NC(=O)C5NC(=O)C(CC(N)=O)NC(=O)C(NC(=O)Cn5cnnn5)C(O)c5ccc(c(Cl)c5)O4)c4ccc(O)c(c4)-c4c(O)cc(O)cc4C(C(=O)O)NC3=O)OC(CO)C(O)C2O)CC(C)(NCc2ccc(-c3ccc(Cl)cc3)cc2)C1O (stereo not drawn) [Compound 228] |  |  | 2 | 2
7 | CC1OC(OC2C(Oc3c4cc5cc3Oc3ccc(cc3Cl)C(O)C3NC(=O)C(NC(=O)C5NC(=O)C(CC(N)=O)NC(=O)C(NC(=O)c5cccnc5N)C(O)c5ccc(c(Cl)c5)O4)c4ccc(O)c(c4)-c4c(O)cc(O)cc4C(C(=O)O)NC3=O)OC(CO)C(O)C2O)CC(C)(NCc2ccc(-c3ccc(Cl)cc3)cc2)C1O (stereo not drawn) [Compound 237] |  |  | 2 | 2
8 | CC1OC(OC2C(Oc3c4cc5cc3Oc3ccc(cc3Cl)C(O)C3NC(=O)C(NC(=O)C5NC(=O)C(CC(N)=O)NC(=O)C(NC(=O)c5cccc(C(F)(F)F)c5)C(O)c5ccc(c(Cl)c5)O4)c4ccc(O)c(c4)-c4c(O)cc(O)cc4C(C(=O)O)NC3=O)OC(CO)C(O)C2O)CC(C)(NCc2ccc(-c3ccc(Cl)cc3)cc2)C1O (stereo not drawn) [Compound 247] |  |  | 2 | 2
9 | CC1OC(OC2C(Oc3c4cc5cc3Oc3ccc(cc3Cl)C(O)C3NC(=O)C(NC(=O)C5NC(=O)C(CC(N)=O)NC(=O)C(NC(=O)c5cccc(O)n5)C(O)c5ccc(c(Cl)c5)O4)c4ccc(O)c(c4)-c4c(O)cc(O)cc4C(C(=O)O)NC3=O)OC(CO)C(O)C2O)CC(C)(NCc2ccc(-c3ccc(Cl)cc3)cc2)C1O (stereo not drawn) [Compound 277] |  |  | 2 | 2
10 | CC(=O)NC1C(=O)NC(CC(N)=O)C(=O)NC2C(=O)NC3C(=O)NC(C(=O)NC(C(=O)O)c4cc(O)cc(O)c4-c4cc3ccc4O)C(O)c3ccc(c(Cl)c3)Oc3cc2cc(c3OC2OC(CO)C(O)C(O)C2OC2CC(C)(NCc3ccc(-c4ccc(Cl)cc4)cc3)C(O)C(C)O2)Oc2ccc(cc2Cl)C1O (stereo not drawn) [Compound 279] |  |  | 2 | 2
11 | CC1OC(OC2C(Oc3c4cc5cc3Oc3ccc(cc3Cl)C(O)C3NC(=O)C(NC(=O)C5NC(=O)C(CC(N)=O)NC(=O)C(NC(=O)c5ccccc5N)C(O)c5ccc(c(Cl)c5)O4)c4ccc(O)c(c4)-c4c(O)cc(O)cc4C(C(=O)O)NC3=O)OC(CO)C(O)C2O)CC(C)(NCc2ccc(-c3ccc(Cl)cc3)cc2)C1O (stereo not drawn) [Compound 280] |  |  | 2 | 2
12 | CC1NC(=O)NC1CCCCCC(=O)NC1C(=O)NC(CC(N)=O)C(=O)NC2C(=O)NC3C(=O)NC(C(=O)NC(C(=O)O)c4cc(O)cc(O)c4-c4cc3ccc4O)C(O)c3ccc(c(Cl)c3)Oc3cc2cc(c3OC2OC(CO)C(O)C(O)C2OC2CC(C)(NCc3ccc(-c4ccc(Cl)cc4)cc3)C(O)C(C)O2)Oc2ccc(cc2Cl)C1O (stereo not drawn) [Compound 284] |  |  | 2 | 2
13 | CCOC(=O)C=CC(=O)NC1C(=O)NC(CC(N)=O)C(=O)NC2C(=O)NC3C(=O)NC(C(=O)NC(C(=O)O)c4cc(O)cc(O)c4-c4cc3ccc4O)C(O)c3ccc(c(Cl)c3)Oc3cc2cc(c3OC2OC(CO)C(O)C(O)C2OC2CC(C)(NCc3ccc(-c4ccc(Cl)cc4)cc3)C(O)C(C)O2)Oc2ccc(cc2Cl)C1O (stereo not drawn) [Compound 288] |  |  | 2 | 2
14 | CC1OC(OC2C(Oc3c4cc5cc3Oc3ccc(cc3Cl)C(O)C3NC(=O)C(NC(=O)C5NC(=O)C(CC(N)=O)NC(=O)C(NC(=O)c5ccncc5)C(O)c5ccc(c(Cl)c5)O4)c4ccc(O)c(c4)-c4c(O)cc(O)cc4C(C(=O)O)NC3=O)OC(CO)C(O)C2O)CC(C)(NCc2ccc(-c3ccc(Cl)cc3)cc2)C1O (stereo not drawn) [Compound 292] |  |  | 2 | 2
15 | CC(O)C(=O)NC1C(=O)NC(CC(N)=O)C(=O)NC2C(=O)NC3C(=O)NC(C(=O)NC(C(=O)O)c4cc(O)cc(O)c4-c4cc3ccc4O)C(O)c3ccc(c(Cl)c3)Oc3cc2cc(c3OC2OC(CO)C(O)C(O)C2OC2CC(C)(NCc3ccc(-c4ccc(Cl)cc4)cc3)C(O)C(C)O2)Oc2ccc(cc2Cl)C1O (stereo not drawn) [Compound 294] |  |  | 2 | 2
16 | CC(=O)CCC(=O)NC1C(=O)NC(CC(N)=O)C(=O)NC2C(=O)NC3C(=O)NC(C(=O)NC(C(=O)O)c4cc(O)cc(O)c4-c4cc3ccc4O)C(O)c3ccc(c(Cl)c3)Oc3cc2cc(c3OC2OC(CO)C(O)C(O)C2OC2CC(C)(NCc3ccc(-c4ccc(Cl)cc4)cc3)C(O)C(C)O2)Oc2ccc(cc2Cl)C1O (stereo not drawn) [Compound 295] |  |  | 2 | 2
17 | CCOC(=O)C=CC(=O)NC1C(=O)NC(CC(N)=O)C(=O)NC2C(=O)NC3C(=O)NC(C(=O)NC(C(=O)O)c4cc(O)cc(O)c4-c4cc3ccc4O)C(O)c3ccc(c(Cl)c3)Oc3cc2cc(c3OC2OC(CO)C(O)C(O)C2OC2CC(C)(NCc3ccc(-c4ccc(Cl)cc4)cc3)C(O)C(C)O2)Oc2ccc(cc2Cl)C1O (stereo not drawn) [Compound 296] |  |  | 2 | 2
18 | CC1OC(OC2C(Oc3c4cc5cc3Oc3ccc(cc3Cl)C(O)C3NC(=O)C(NC(=O)C5NC(=O)C(CC(N)=O)NC(=O)C(NC(=O)CSCCS(=O)(=O)c5ccc(Cl)cc5)C(O)c5ccc(c(Cl)c5)O4)c4ccc(O)c(c4)-c4c(O)cc(O)cc4C(C(=O)O)NC3=O)OC(CO)C(O)C2O)CC(C)(NCc2ccc(-c3ccc(Cl)cc3)cc2)C1O (stereo not drawn) [Compound 300] |  |  | 2 | 2
19 | CC1OC(OC2C(Oc3c4cc5cc3Oc3ccc(cc3Cl)C(O)C3NC(=O)C(NC(=O)C5NC(=O)C(CC(N)=O)NC(=O)C(NC(=O)CNC(=O)C=Cc5ccco5)C(O)c5ccc(c(Cl)c5)O4)c4ccc(O)c(c4)-c4c(O)cc(O)cc4C(C(=O)O)NC3=O)OC(CO)C(O)C2O)CC(C)(NCc2ccc(-c3ccc(Cl)cc3)cc2)C1O (stereo not drawn) [Compound 306] |  |  | 2 | 2
20 | CC1OC(OC2C(Oc3c4cc5cc3Oc3ccc(cc3Cl)C(O)C3NC(=O)C(NC(=O)C5NC(=O)C(CC(N)=O)NC(=O)C(NC(=O)c5ccc[n+]([O-])c5)C(O)c5ccc(c(Cl)c5)O4)c4ccc(O)c(c4)-c4c(O)cc(O)cc4C(C(=O)O)NC3=O)OC(CO)C(O)C2O)CC(C)(NCc2ccc(-c3ccc(Cl)cc3)cc2)C1O (stereo not drawn) [Compound 308] |  |  | 2 | 2
21 | CNC(=O)C=CC(=O)NC1C(=O)NC(CC(N)=O)C(=O)NC2C(=O)NC3C(=O)NC(C(=O)NC(C(=O)O)c4cc(O)cc(O)c4-c4cc3ccc4O)C(O)c3ccc(c(Cl)c3)Oc3cc2cc(c3OC2OC(CO)C(O)C(O)C2OC2CC(C)(NCc3ccc(-c4ccc(Cl)cc4)cc3)C(O)C(C)O2)Oc2ccc(cc2Cl)C1O (stereo not drawn) [Compound 309] |  |  | 2 | 2
22 | CC1OC(OC2C(Oc3c4cc5cc3Oc3ccc(cc3Cl)C(O)C3NC(=O)C(NC(=O)C5NC(=O)C(CC(N)=O)NC(=O)C(NC(=O)Cc5c(F)c(F)c(F)c(F)c5F)C(O)c5ccc(c(Cl)c5)O4)c4ccc(O)c(c4)-c4c(O)cc(O)cc4C(C(=O)O)NC3=O)OC(CO)C(O)C2O)CC(C)(NCc2ccc(-c3ccc(Cl)cc3)cc2)C1O (stereo not drawn) [Compound 310] |  |  | 2 | 2
23 | CC1OC(OC2C(Oc3c4cc5cc3Oc3ccc(cc3Cl)C(O)C3NC(=O)C(NC(=O)C5NC(=O)C(CC(N)=O)NC(=O)C(NC(=O)c5cccs5)C(O)c5ccc(c(Cl)c5)O4)c4ccc(O)c(c4)-c4c(O)cc(O)cc4C(C(=O)O)NC3=O)OC(CO)C(O)C2O)CC(C)(NCc2ccc(-c3ccc(Cl)cc3)cc2)C1O (stereo not drawn) [Compound 319] |  |  | 2 | 2
24 | CC1OC(OC2C(Oc3c4cc5cc3Oc3ccc(cc3Cl)C(O)C3NC(=O)C(NC(=O)C5NC(=O)C(CC(N)=O)NC(=O)C(NC(=O)Cc5ccsc5)C(O)c5ccc(c(Cl)c5)O4)c4ccc(O)c(c4)-c4c(O)cc(O)cc4C(C(=O)O)NC3=O)OC(CO)C(O)C2O)CC(C)(NCc2ccc(-c3ccc(Cl)cc3)cc2)C1O (stereo not drawn) [Compound 320] |  |  | 2 | 2

From US6518243B1, “Desleucyl glycopeptide antibiotics and methods of making same” (Trustees of Princeton University, priority 1999, dated 2003)
